Measurements published in the supplement of paper PMC13380429.

Legend:
Details in all cases: 72 h
HepG2 [1] = assay: cell viability relative to DMSO; higher = less toxic
Caco-2 [2] = assay: as above
Calu-3 [3] = assay: as above
U2OS [4] = assay: as above
HepG2 [5] = assay: drug sensitivity score (DSS) for viability; higher = more toxic; extreme values may be limits of the assay
Caco-2 [6] = assay: as above
Calu-3 [7] = assay: as above
U2OS [8] = assay: as above
HepG2 [9] = assay: relative viability EC50 (midpoint between 100% and the lowest measured viability); higher = less toxic
Caco-2 [10] = assay: as above
Calu-3 [11] = assay: as above
U2OS [12] = assay: as above
Vero E6 [13] = assay: cell viability relative to DMSO; higher = less toxic
Vero E6 [14] = assay: drug sensitivity score (DSS) for viability; higher = more toxic; extreme values may be limits of the assay
Vero E6 [15] = assay: relative viability EC50 (midpoint between 100% and the lowest measured viability); higher = less toxic

| Compound | cell viability (HepG2 [1]; 1 nM) [%] | cell viability (HepG2 [1]; 10 nM) [%] | cell viability (HepG2 [1]; 100 nM) [%] | cell viability (HepG2 [1]; 1000 nM) [%] | cell viability (HepG2 [1]; 10000 nM) [%] | cell viability (Caco-2 [2]; 1 nM) [%] | cell viability (Caco-2 [2]; 10 nM) [%] | cell viability (Caco-2 [2]; 100 nM) [%] | cell viability (Caco-2 [2]; 1000 nM) [%] | cell viability (Caco-2 [2]; 10000 nM) [%] | cell viability (Calu-3 [3]; 1 nM) [%] | cell viability (Calu-3 [3]; 10 nM) [%] | cell viability (Calu-3 [3]; 100 nM) [%] | cell viability (Calu-3 [3]; 1000 nM) [%] | cell viability (Calu-3 [3]; 10000 nM) [%] | cell viability (U2OS [4]; 1 nM) [%] | cell viability (U2OS [4]; 10 nM) [%] | cell viability (U2OS [4]; 100 nM) [%] | cell viability (U2OS [4]; 1000 nM) [%] | cell viability (U2OS [4]; 10000 nM) [%] | drug sensitivity score (HepG2 [5]) | drug sensitivity score (Caco-2 [6]) | drug sensitivity score (Calu-3 [7]) | drug sensitivity score (U2OS [8]) | relative viability EC50 (HepG2 [9]) [µM] | relative viability EC50 (Caco-2 [10]) [µM] | relative viability EC50 (Calu-3 [11]) [µM] | relative viability EC50 (U2OS [12]) [µM] | cell viability (Vero E6 [13]; 1 nM) [%] | cell viability (Vero E6 [13]; 10 nM) [%] | cell viability (Vero E6 [13]; 100 nM) [%] | cell viability (Vero E6 [13]; 1000 nM) [%] | cell viability (Vero E6 [13]; 10000 nM) [%] | drug sensitivity score (Vero E6 [14]) | relative viability EC50 (Vero E6 [15]) [µM] |
| --- | --- | --- | --- | --- | --- | --- | --- | --- | --- | --- | --- | --- | --- | --- | --- | --- | --- | --- | --- | --- | --- | --- | --- | --- | --- | --- | --- | --- | --- | --- | --- | --- | --- | --- | --- |
| C=CCN1CCc2cc(O)c(O)cc2[C@H](c2ccccc2)C1 | 100 | 93.3 | 105 | 92.5 | 86.9 | 95.1 | 91.8 | 86.5 | 99.5 | 79.4 | 89.8 | 92 | 103 | 103 | 99 | 99.7 | 99.3 | 96.9 | 102 | 92.8 | 0.5 | 0.7 | 0 | 0 | > 10 | > 10 | > 10 | > 10 |  |  |  |  |  |  |  |
| COc1ccc2c(NC(=O)Nc3cccc(C(F)(F)F)n3)ccnc2c1 | 108 | 108 | 93.8 | 105 | 95.6 | 97.7 | 106 | 100 | 95.5 | 93.4 | 97.6 | 99 | 96.1 | 94.8 | 93.6 | 102 | 96.6 | 106 | 101 | 104 | 0 | 0 | 0 | 0 | > 10 | > 10 | > 10 | > 10 |  |  |  |  |  |  |  |
| COc1cccc(OCCCN)c1-c1cc(Nc2cnc(C#N)cn2)n[nH]1 | 97.4 | 97.4 | 35.7 | 38.3 | 25.6 | 98.9 | 101 | 86.7 | 15.5 | 21 | 106 | 99.9 | 69.6 | 48.1 | 57.8 | 101 | 86.7 | 5.2 | 2.8 | 2.5 | 21.7 | 17.6 | 13.3 | 31.6 | 0.0431 | 0.194 | 0.0872 | 0.022 | 92.9 | 101 | 84.9 | 61.1 | 65.3 | 9 |  |
| N#Cc1ccccc1OCC(O)CNCCNC(=O)Nc1ccccc1 (stereo not drawn) | 108 | 102 | 110 | 107 | 93.6 | 101 | 102 | 91.4 | 99.5 | 101 | 100 | 94.7 | 102 | 92.8 | 92.4 | 99.5 | 94.3 | 95.3 | 95.7 | 97.1 | 0 | 0 | 0 | 0 | > 10 | > 10 | > 10 | > 10 |  |  |  |  |  |  |  |
| CC(C)(C)c1ccc(/C=C/C(=O)Nc2ccc3c(c2)OCCO3)cc1 [AMG-9810] | 98.3 | 101 | 97.9 | 103 | 33.1 | 94.9 | 92.8 | 99.3 | 90.4 | 67.8 | 103 | 98.3 | 101 | 94.5 | 78.8 | 96.4 | 97.4 | 98.2 | 96.7 | 89.7 | 3.4 | 2.9 | 1.4 | 0 | 3.43 |  | > 10 | > 10 | 98.3 | 102 | 96 | 97 | 89.4 | 0 | > 10 |
| Cc1cnc(CNC(=O)c2c(=O)c3ccc(N4CCCN(C)CC4)nc3n3c2sc2ccccc23)cn1 [CX-5461] | 110 | 108 | 110 | 71.6 | 30.5 | 106 | 114 | 95.5 | 121 | 75.9 | 93.9 | 105 | 100 | 100 | 84 | 99.5 | 102 | 96.9 | 106 | 98.4 | 7.6 | 0.5 | 0.3 | 0 | 1.16 | > 10 | > 10 | > 10 | 114 | 92.3 | 106 | 84.2 | 53.3 | 4.7 |  |
| CCCCCCN(CCCCCC)C(=O)Cc1c(-c2ccc(F)cc2)[nH]c2ccccc12 [FGIN-1-27] | 104 | 95.2 | 94.3 | 106 | 96.6 | 99.5 | 99.6 | 89.2 | 94.3 | 68.6 | 96 | 99.2 | 99.8 | 102 | 89 | 98.5 | 102 | 103 | 100 | 92.3 | 0 | 2.2 | 0 | 0 | > 10 |  | > 10 | > 10 | 98.6 | 94.5 | 94 | 95.2 | 92.8 | 0 | > 10 |
| CCc1cnc(N2CCC(c3nc(COc4ccc(-n5cnnn5)cc4)cs3)CC2)nc1 [MBX-2982] | 97.4 | 94.6 | 93.2 | 99.7 | 36 | 95.8 | 107 | 86.9 | 96.1 | 67.5 | 97.5 | 92 | 109 | 102 | 103 | 103 | 94.8 | 96.7 | 96.2 | 93.7 | 3.5 | 2.1 | 0 | 0 | 3.13 |  | > 10 | > 10 | 102 | 106 | 105 | 97.2 | 80.4 | 0.9 | > 10 |
| Cc1ccc(-c2ncn(-c3ccc(Nc4nccc(-c5cccc(N6CCOCC6)c5)n4)cc3)n2)cn1 [SR-3306] | 99.8 | 90.8 | 100 | 98.9 | 40.9 | 99.3 | 98.7 | 95.9 | 92.2 | 67.5 | 99.9 | 98.3 | 87.8 | 94.7 | 98.6 | 102 | 104 | 97.9 | 103 | 78 | 3.3 | 2.6 | 0 | 0.6 | 3.04 |  | > 10 | > 10 | 109 | 109 | 106 | 99.1 | 92.9 | 0 | > 10 |
| CC[N+](CC)(CCCNC1=CC(=O)C(NCCC[N+](CC)(CC)Cc2ccccc2)=CC1=O)Cc1ccccc1 [benzoquinonium-dibromide] | 96.3 | 106 | 95.2 | 100 | 95 | 94.5 | 98.6 | 95.4 | 96.3 | 91.7 | 103 | 92.9 | 108 | 104 | 96.8 | 94.6 | 94.4 | 96.8 | 95.8 | 98.3 | 0 | 0 | 0 | 0 | > 10 | > 10 | > 10 | > 10 |  |  |  |  |  |  |  |
| N#Cc1cnc2c(Cl)cc(NCc3cn(CCN4CCCCCC4)nn3)cc2c1Nc1ccc(F)c(Cl)c1 [cot-inhibitor-1] | 95 | 107 | 96.7 | 120 | 80.6 | 92.1 | 99.7 | 105 | 98 | 67.8 | 104 | 103 | 99.5 | 96.9 | 96.2 | 102 | 103 | 101 | 101 | 77 | 0.2 | 1.7 | 0 | 0.7 | > 10 |  | > 10 | > 10 | 94.2 | 102 | 92.2 | 96.9 | 103 | 0 | > 10 |
| CCOP(=S)(OCC)Oc1cc(C)nc(C(C)C)n1 [dimpylate] | 92.9 | 104 | 106 | 101 | 96.8 | 102 | 95.4 | 103 | 93 | 93.2 | 106 | 100 | 99.3 | 97.7 | 96.3 | 104 | 102 | 102 | 97.9 | 99.2 | 0 | 0 | 0 | 0 | > 10 | > 10 | > 10 | > 10 |  |  |  |  |  |  |  |
